Regarding `*/C=C(/*)c1ccccc1C[Si](C)(C)C` (repeat unit), the glass transition temperature turned out to be 170.00 °C.

The compound `*C(=O)OCCCCCCCCCCCCCCCCCCCCCCOC(=O)c1ccc(N2C(=O)c3ccc(*)cc3C2=O)cc1` (repeat unit) yielded a glass transition temperature of 44.00 °C.

In the case of `*C(=O)OCCCCCCCCCCCCOC(=O)c1ccc(N2C(=O)c3ccc(*)cc3C2=O)cc1` (repeat unit), the glass transition temperature turned out to be 47.00 °C.

As for `*C(=O)OCCCCCCCCCCCOC(=O)c1ccc(N2C(=O)c3ccc(*)cc3C2=O)cc1` (repeat unit), the glass transition temperature came out at 49.00 °C.

In turn, `*C(=O)OCCCCCCCCCCOC(=O)c1ccc(N2C(=O)c3ccc(*)cc3C2=O)cc1` (repeat unit) returned a glass transition temperature of 58.00 °C.

`*C(=O)Oc1ccc(OC(=O)c2ccc3c(c2)C(=O)N(c2ccc(Cc4ccc(N5C(=O)c6ccc(*)cc6C5=O)cc4)cc2)C3=O)c(C(C)(C)C)c1` (repeat unit) gave a glass transition temperature of 160.00 °C.

`*C(=O)Oc1ccc(OC(=O)c2ccc3c(c2)C(=O)N(c2ccc(S(=O)(=O)c4ccc(N5C(=O)c6ccc(*)cc6C5=O)cc4)cc2)C3=O)c(C(C)(C)C)c1` (repeat unit): the glass transition temperature amounted to 179.00 °C.

For `*CC#CC#CCOC(=O)c1ccc(C(=O)O*)cc1` (repeat unit), the glass transition temperature was found to be 143.00 °C.

`*CC(COC(=O)O*)OCCCCCCOc1ccc(/C=C/c2ccc([N+](=O)[O-])cc2)cc1` (repeat unit) returned a glass transition temperature of 32.00 °C.

With `*CC(COC(=O)O*)OCCOc1ccc(/C=C/c2ccc([N+](=O)[O-])cc2)cc1` (repeat unit), the glass transition temperature amounted to 53.00 °C.

The compound `*CC(F)(F)C(F)(F)C(F)(F)COC(=O)c1cc(C(=O)O*)cc(C(F)(F)C(F)(F)C(F)(F)C(F)(F)C(F)(F)C(F)(F)C(F)(F)F)c1` (repeat unit) returned a glass transition temperature of 27.00 °C.

Compound `*CC(F)(F)C(F)(F)C(F)(F)COC(=O)c1cccc(C(F)(F)C(F)(F)C(F)(F)c2cccc(C(=O)O*)c2)c1` (repeat unit) returned a glass transition temperature of 24.00 °C.

As for `*CC1CCC(COC(=O)c2ccc(C(=O)O*)cc2)CC1` (repeat unit), the glass transition temperature stood at 84.50 °C.

`*CC1CCC(COC(=O)c2cccc(C(=O)O*)c2)CC1` (repeat unit) had a glass transition temperature of 70.00 °C.

As for `*CC1CCC(COC(C)OC(=O)c2cccc(C(=O)OC(C)O*)c2)CC1` (repeat unit), the glass transition temperature is 30.00 °C.

The compound `*CCCCC(=O)NNC(=O)c1ccc(C(=O)NNC(=O)CCCCOc2ccc(O*)c(C)c2)cc1` (repeat unit) yielded a glass transition temperature of 150.00 °C.

Take `*CCCCCCCCCCCCOC(=O)c1ccc2cc(C(=O)O*)ccc2c1` (repeat unit): the glass transition temperature turned out to be 45.00 °C.

`*CCCCCCCCCCCCOc1ccc(CCc2ccc(O*)cc2C)cc1` (repeat unit) returned a glass transition temperature of 0.00 °C.

Compound `*CCCCCCCCCCCOc1ccc(CCc2ccc(O*)cc2C)cc1` (repeat unit) displayed a glass transition temperature of 3.90 °C.

Consider `*CCCCCCCCCCOC(=O)O*` (repeat unit), for which the glass transition temperature is -37.00 °C.

On to `*CCCCCCCCCCOC(=O)c1ccc(-c2ccc(C(=O)O*)cc2)cc1` (repeat unit), for which the glass transition temperature turned out to be 52.00 °C.

Regarding `*CCCCCCCCCCOC(=O)c1ccc(C(=O)O*)cc1` (repeat unit), the glass transition temperature was 10.50 °C.

`*CCCCCCCCCCOc1ccc(/C=C/c2ccc(OCCCCCCCCCCOP(=O)(O*)OCCCCCCCCCCOc3ccc(/N=N/c4ccc(OC)cc4)cc3)cc2)cc1` (repeat unit) yielded a glass transition temperature of 58.00 °C.

As for `*CCCCCCOC(=O)OCCCCCCCCCCCCOC(=O)OCCCCCCOc1ccc(C(=O)c2ccc(O*)cc2)cc1` (repeat unit), the glass transition temperature is -8.00 °C.

In the case of `*CCCCCCOC(=O)OCCCCCCCCCCCCOC(=O)OCCCCCCOc1ccc(Oc2ccc(O*)cc2)cc1` (repeat unit), the glass transition temperature was -22.00 °C.

As to `*CCCCCCOC(=O)OCCCCCCCCCCCCOC(=O)OCCCCCCn1c(=O)c2cc3c(=O)n(*)c(=O)c3cc2c1=O` (repeat unit), the glass transition temperature was -9.00 °C.

Consider `*CCCCCCOC(=O)OCCCCCCCCCCOC(=O)OCCCCCCOc1ccc(Oc2ccc(O*)cc2)cc1` (repeat unit), for which the glass transition temperature was -22.00 °C.

In the case of `*CCCCCOc1cccc(C(=O)OC(=O)c2cccc(O*)c2)c1` (repeat unit), the glass transition temperature stood at 61.00 °C.

With `*CCCCOc1ccc(C(=O)OC(=O)c2ccc(O*)cc2)cc1` (repeat unit), the glass transition temperature amounted to 45.00 °C.

With `*Nc1ccc(C(=O)c2c(C)c(C)c(C(=O)c3ccc(NC(=O)c4ccc(C(*)=O)cc4)cc3)c(C)c2C)cc1` (repeat unit), the glass transition temperature came to 345.00 °C.

Take `*OC(*)CCCCCC` (repeat unit): the glass transition temperature was -116.00 °C.

`*OC(=O)OC1CC2CC(*)CC(C1)O2` (repeat unit): the glass transition temperature stood at 207.00 °C.

Take `*OC(=O)OC1COC2C(*)COC12` (repeat unit): the glass transition temperature is 140.00 °C.

The compound `*OC(=O)OCCCCCCCCCCOC(=O)OC1COC2C(*)COC12` (repeat unit) came in with a glass transition temperature of 6.50 °C.

The compound `*OC(=O)c1ccc(/N=N/c2ccc(C(=O)OC3COC4C(*)COC34)cc2)cc1` (repeat unit) had a glass transition temperature of 98.00 °C.

In turn, `*OC(=O)c1ccc(C(F)(F)C(F)(F)C(F)(F)c2ccc(C(*)=O)cc2)cc1` (repeat unit) yielded a glass transition temperature of 98.00 °C.

`*OC(=O)c1ccc(CCCCCCc2ccc(C(*)=O)cc2)cc1` (repeat unit): the glass transition temperature came to 20.00 °C.

With `*OC(=O)c1ccc(CCCCCc2ccc(C(*)=O)cc2)cc1` (repeat unit), the glass transition temperature stood at 42.50 °C.

As for `*OC(=O)c1cccc(C(*)=O)c1` (repeat unit), the glass transition temperature came to 130.00 °C.

As to `*OC(COC(*)=O)COc1ccccc1` (repeat unit), the glass transition temperature is 45.00 °C.

In turn, `*OC(COC(=O)C1=C(C(=O)OCC(COC(=O)C2=C(c3ccccc3)C3C=CC2C3)OC(=O)c2ccc(C(*)=O)cc2)C2C=CC1C2)COC(=O)C1=C(c2ccccc2)C2C=CC1C2` (repeat unit) came in with a glass transition temperature of 74.00 °C.

Consider `*OC(F)(F)C(F)(F)C(*)(F)F` (repeat unit), for which the glass transition temperature is -109.00 °C.

As to `*OC(F)(F)C(F)(F)C(F)(F)C(*)(F)F` (repeat unit), the glass transition temperature is -55.00 °C.

In turn, `*OC1C(CO)OC(*)C(N)C1O` (repeat unit) gave a glass transition temperature of 194.00 °C.

The compound `*OC1C(CO)OC(*)C(O)C1O` (repeat unit) returned a glass transition temperature of 332.00 °C.

`*OC1C(COCC)OC(*)C(OCC)C1OCC` (repeat unit) registered a glass transition temperature of 131.2 °C.

As for `*OC1C(COCO)OC(*)C(O)C1O` (repeat unit), the glass transition temperature stood at 208.00 °C.

With `*OCC(F)(F)C(F)(F)C(F)(F)COc1nc(F)c(F)c(OCC(F)(F)C(F)(F)C(F)(F)COc2c(F)c(*)nc(F)c2F)c1F` (repeat unit), the glass transition temperature was -10.00 °C.

On to `*ON(C(F)(F)C(*)(F)F)C(F)(F)C(F)(F)Br` (repeat unit), for which the glass transition temperature is -17.00 °C.

Turning to `*ON(C(F)(F)F)C(F)(Br)C(*)(F)F` (repeat unit), the glass transition temperature was 3.00 °C.

On to `*O[Si](C)(C)O[Si](C)(C)O[Si](C)(C)O[Si](C)(C)O[Si](C)(C)O[Si](C)(C)OC1=C(*)c2cccc3cccc1c23` (repeat unit), for which the glass transition temperature is -93.00 °C.

On to `*Oc1c(C)cc(C(=O)c2ccc(*)cc2)cc1C` (repeat unit), for which the glass transition temperature was 200.00 °C.

With `*Oc1cc(C(C)(C)c2ccccc2)c(OC(=O)c2cccc(C(*)=O)c2)cc1C(C)(C)c1ccccc1` (repeat unit), the glass transition temperature turned out to be 180.00 °C.

In turn, `*Oc1cc(CCCC)cc(OC(=O)c2cccc(C(*)=O)c2)c1` (repeat unit) displayed a glass transition temperature of 97.50 °C.

In turn, `*Oc1ccc(C(c2ccc(OC(=O)OC3C(C)(C)C(OC(*)=O)C3(C)C)cc2)(C(F)(F)F)C(F)(F)F)cc1` (repeat unit) gave a glass transition temperature of 142.00 °C.

With `*Oc1ccc(C(c2ccccc2)c2ccc(OC(*)=O)cc2C)c(C)c1` (repeat unit), the glass transition temperature was determined as 182.00 °C.

As to `*Oc1ccc(C2(c3ccc(OC(=O)OC4C(C)(C)C(OC(*)=O)C4(C)C)cc3)c3ccccc3-c3ccccc32)cc1` (repeat unit), the glass transition temperature was found to be 214.00 °C.

In turn, `*Oc1ccc(OC(=O)c2ccc(C(*)=O)cc2)cc1CCC(C)CC` (repeat unit) came in with a glass transition temperature of 237.00 °C.

`*Oc1ccc(OC(=O)c2ccc(OCCCCCCCCOc3ccc(C(*)=O)cc3)cc2)cc1C(=O)CC` (repeat unit) displayed a glass transition temperature of 70.00 °C.

The compound `*Oc1ccc(OC(=O)c2cccc(Sc3ccc(OC(=O)c4ccc(C(=O)Oc5ccc(Sc6cccc(C(*)=O)c6)cc5)cc4)cc3)c2)cc1C` (repeat unit) had a glass transition temperature of 106.50 °C.

`*c1ccc(C(=O)OCCCCCCCCCCCCOC(=O)c2ccc(-c3nnc(*)s3)cc2)cc1` (repeat unit) came in with a glass transition temperature of 68.00 °C.

The compound `*c1ccc(OCCCCCCCCCCCOC(=O)c2cccc(C(=O)OCCCCCCCCCCCOc3ccc(-c4nnc(*)s4)cc3)c2)cc1` (repeat unit) yielded a glass transition temperature of 68.00 °C.

The compound `*c1ccc(OCCCCCCCCCCCOC(=O)c2cccc(C(=O)OCCCCCCCCCCCOc3cccc(-c4nnc(*)s4)c3)c2)cc1` (repeat unit) came in with a glass transition temperature of 39.00 °C.

Regarding `*c1ccc(Oc2ccc(C(=O)c3ccc(Oc4ccc(-c5c6c(c(*)c7ccccc57)C(=O)N(c5cccc(C(F)(F)F)c5)C6=O)cc4)cc3)cc2)cc1` (repeat unit), the glass transition temperature turned out to be 252.00 °C.

`*c1ccc(Oc2ccc(C(=O)c3ccc(Oc4ccc(-c5c6c(c(*)c7ccccc57)C(=O)N(c5ccccc5)C6=O)cc4)cc3)cc2)cc1` (repeat unit) gave a glass transition temperature of 273.50 °C.

`*c1cccc(OCCCCCCCCCCCOC(=O)c2cccc(C(=O)OCCCCCCCCCCCOc3cccc(-c4nnc(*)s4)c3)c2)c1` (repeat unit) returned a glass transition temperature of 15.00 °C.

(Values after the PolyMetriX glass transition set.)
